The record followed here is ChEMBL document CHEMBL1140363, “Structure-driven HtL: design and synthesis of novel aminoindazole inhibitors of c-Jun N-terminal kinase activity” (Bioorg Med Chem Lett, 2005).

Sequence of Mitogen-activated protein kinase 8 (P45983 whole entry): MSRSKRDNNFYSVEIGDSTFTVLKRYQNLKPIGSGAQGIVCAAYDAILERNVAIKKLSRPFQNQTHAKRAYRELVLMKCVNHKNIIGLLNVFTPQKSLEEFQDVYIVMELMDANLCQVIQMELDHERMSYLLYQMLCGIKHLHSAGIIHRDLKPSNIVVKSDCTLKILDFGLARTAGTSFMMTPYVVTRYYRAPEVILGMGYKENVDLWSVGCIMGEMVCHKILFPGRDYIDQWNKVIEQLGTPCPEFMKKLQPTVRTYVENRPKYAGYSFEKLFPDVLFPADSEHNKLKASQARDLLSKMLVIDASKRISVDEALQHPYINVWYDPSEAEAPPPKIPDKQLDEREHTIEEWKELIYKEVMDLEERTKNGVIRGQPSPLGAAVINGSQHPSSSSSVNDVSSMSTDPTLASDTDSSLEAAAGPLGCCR

The experiment addresses Mitogen-activated protein kinase 8 (Homo sapiens, UniProt P45983). Put plainly: Negative log of inhibitory concentration determined against c-Jun N-terminal kinase (Activity reported against the isolated JNK-1 enzyme).
`CC(=O)Nc1ccc(CNc2[nH]nc3cccc(Oc4ccc(S(C)(=O)=O)cc4)c23)cc1` gave an IC50 of 794 nM. In the case of `O=C(NCc1ccccc1Cl)c1cccnc1Oc1ccccc1F` it was 1580 nM; in that of `Clc1cccc(CNc2[nH]nc3cccc(Oc4ccccc4)c23)c1`, 1260 nM.

In the case of `COc1ccc(Oc2ncccc2C(=O)NCc2ccccc2Cl)cc1`, the IC50 is 3980 nM. Regarding `Nc1ccc2[nH]nc(NCc3ccccc3Cl)c2c1Oc1ccccc1`, half-maximal inhibition (IC50) required 5010 nM. `COc1ccc(OC)c(CNc2[nH]nc3cccc(Oc4ccc(S(C)(=O)=O)cc4)c23)c1` gave an IC50 of 398 nM. The compound `O=[N+]([O-])c1ccc2[nH]nc(NCc3ccccc3Cl)c2c1Oc1ccccc1` showed an IC50 of 1580 nM.

As to `Clc1ccc(Cl)c(CNc2[nH]nc3cccc(Oc4ccccc4)c23)c1`, the IC50 was 794 nM. The compound `CC(=O)Nc1ccc(CNc2[nH]nc3cccc(Oc4ccc(F)cc4)c23)cc1` showed an IC50 of 501 nM. Consider `COc1ccc(OC)c(CNc2[nH]nc3ccc([N+](=O)[O-])c(Oc4ccccc4)c23)c1`, for which 794 nM corresponded to half-maximal inhibition (IC50). Regarding `COc1ccc(OC)c(CNC(=O)c2cccnc2Oc2ccccc2)c1`, it took 100 nM to reach half-maximal inhibition (IC50). In the case of `C[C@H](NC(=O)c1cccnc1Oc1ccccc1)c1ccccc1` it was 6310 nM; in that of `COc1ccc(OC)c(CNc2[nH]nc3cccc(Oc4ccc(F)cc4)c23)c1`, 200 nM.

The compound `CC(=O)Nc1ccc(CNc2[nH]nc3ccnc(Oc4ccccc4)c23)cc1` showed an IC50 of 158 nM. Regarding `COc1ccc(OC)c(CNc2[nH]nc3cccc(Oc4ccccc4)c23)c1`, 126 nM corresponded to half-maximal inhibition (IC50).

`CC(=O)Nc1ccc(CNc2[nH]nc3cccc(Oc4ccccc4)c23)cc1` showed an IC50 of 794 nM.

`COc1ccc(OC)c(CNc2[nH]nc3ccnc(Oc4ccccc4)c23)c1` gave an IC50 of 15.8 nM.
